Reference: patent publication US5869494A, “Uses for barbituric acid analogs” (priority 1997, dated 1999)
Entries after “also recorded” stand apart in the source; their conditions may differ.

Legend:
[1] = system: breast tumor; assay: Human tumor cloning system, breast tumors; type: cell-based; conditions: responsive = at least 50% inhibition of tumor colony formation
Method: (§1) Through the initial work of Hamburger and Salmon (1977 a,b), it is possible to culture human tumors using a two-layer soft agar system. This culture system, called the human tumor cloning system, was initially utilized to select the most appropriate anticancer agent for an individual patient's tumor. […] In an in vitro-in vivo correlation study involving 800 patients retrospectively, it was determined that the true positive rate for this assay was 70%, while the true negative rate for the assay was 98% (Von Hoff et al., 1981). In a more recent prospective clinical trial of the cloning system involving 604 patients, the percent true positive for the assay was 64%, while the percent true negative for the assay was 86% (Von Hoff et al., 1983). […] This system was used to study the response of compound C1 for breast cancer and non-small cell lung carcinoma.
(§2) Collection and preparation of tumor cells: After obtaining informed consent in accordance with federal and institutional guidelines, malignant effusions, ascites and bone marrow aspirates containing tumor cells as well as solid tumor specimens were collected from patients undergoing procedure carried out as a part of their diagnostic workup or as part of treatment for their disease. […] The viability of cell suspensions thus obtained was determined with trypan blue.
(§3) Tumor cells to be cloned were suspended in 0.3% agar in enriched CMRL 1066 medium (Gibco, Grand Island, N.Y.) supplemented with 15% heat-inactivated horse serum, penicillin (100 units/ml), streptomycin (2 mg/ml) glutamine (2 mM), insulin (3 units/ml), asparagine (0.6 mg/ml), and HEPES buffer (2 mM). […] After an incubation period of 14 days, plates were removed and the number of colonies were counted in each plate. The number of colonies (defined as >50 cells) formed were compared in drug treated and untreated (control) plates and the percent colonies surviving at each drug dose tested was then calculated as a percentage of control. […]

[2] = system: MALME-3M; assay: NCI tumor cell line screen (SRB assay); type: cell-based; conditions: Homo sapiens, read-out: PERCENT GROWTH
Method: (§4) The National Cancer Institute carried out the studies at the direction of the present inventor.
(§5) In the tests, the National Cancer Institute used the SRB (sulforhodamine B) assay as described by Skehan et al., (Journal of the National Cancer Institute, 82:13, Jul. 4, 1990, 1107-1112). Briefly, the assay is as follows. TCA-fixed cells were stained for 30 minutes with 0.4% (wt/vol) SRB dissolved in 1% acetic acid. At the end of the staining period, SRB was removed and cultures were quickly rinsed four times with 1% acetic acid to remove unbound dye. The acetic acid was poured directly into the culture wells from a beaker. […] Residual wash solution was removed by sharply flicking plates over a sink, which ensured the complete removal of rinsing solution. […] After being rinsed, the cultures were air dried until no standing moisture was visible. Bound dye was solubilized with 10 mM unbuffered Tris base (pH 10.5) for 5 minutes on a gyratory shaker.
(§6) Optical density (OD) was read in either a UVmax microtiter plate reader (Molecular Devices, Menlo Park, Calif.) or a Beckman DU-70 spectrophotometer. For maximum sensitivity, OD was measured at 564 nm. Because readings were linear with dye concentrations only below 1.8 OD units, however, suboptimal wavelengths were generally used, so that all samples in an experiment remained within the linear OD range. With most cell lines, wavelengths of approximately 490-530 nm worked well for this purpose.
(§7) Nine different non-small cell lung carcinoma cell lines, six different colon carcinoma cell lines, six different CNS (central nervous system) carcinoma cell lines, seven different melanoma cell lines, six different ovarian carcinoma cell lines, and eight different renal carcinoma cell lines were tested.

[3] = system: HCT-15; assay: NCI tumor cell line screen (SRB assay); type: cell-based; conditions: Homo sapiens, read-out: PERCENT GROWTH
Method: as §4, §5, §6, §7

[4] = system: NCI-H322M; assay: NCI tumor cell line screen (SRB assay); type: cell-based; conditions: Homo sapiens, read-out: PERCENT GROWTH
Method: as §4, §5, §6, §7

[5] = system: human prostate tumors; assay: Established human prostate tumors implanted in mice, intramuscular treatment; type: in vivo; conditions: 100 mg/kg intramuscular, alternate days, after 5 weeks
Method: Similar experiments were carried out where implanted human prostate tumors (2×2 mm) were allowed to become established. Eight days later, the tumor size was ≈5×5 mm. Treatment was initiated which consisted of intramuscular injections of C1 (100 mg/kg) given on alternate days. After 5 weeks of treatment, tumors were not detectable by palpation in 2 of 3 animals. […] Untreated control mice (n=3), had tumors at 5 weeks of average size of 10×9mm.

[6] = system: lung carcinoma (non-small cell); assay: Human tumor cloning system, lung carcinoma (non-small cell); type: cell-based; conditions: responsive = at least 50% inhibition of tumor colony formation
Method: as §1, §2, §3

[7] = system: DU-145 human prostate tumors; assay: Human DU-145 prostate tumors transplanted into athymic mice, oral treatment; type: in vivo, athymic BALB/c nude-nu mice; conditions: 400 mg/kg oral
Excerpt: Male athymic BALB/c nude-nu mice (6-8 weeks old, 18-22 g each) were purchased from Harlan Sprague-Dawley, Inc. (Indianapolis, Ind.) and maintained in a germ-free environment. The mice had free access to sterile food and water. Human prostate DU-145 cells (1×10^7) were transplanted subcutaneously into athymic mice. Solid tumors appearing after 30 days were cut into small pieces (2-2 mm) and transplanted into native mice. […] The treatment schedule consisted of a single dose on alternate days. The control group of animals (3 mice) received vehicle only. […] At this point, the treatment was terminated and animals were kept under observation for the regrowth of prostate tumors.
formula % TGI = 100(1Vt /Vc), where Vt and Vc are the […]

## CCCCN1C(=O)CC(=O)N(CCCC)C1=S [Compound C1, 4,6(1H, 5H)-pyrimidinedione, 1,3-dibutyldihydro-2-thioxo]
[1]; 75 μg/ml
  # responsive tumors/total # evaluated: 3/8
[1]; 100 μg/ml
  # responsive tumors/total # evaluated: 4/8
[1]; 125 μg/ml
  # responsive tumors/total # evaluated: 6/8
[2]; 10^-3.0 Molar
  activity: -83%
[2]; 10^-4.0 Molar
  activity at 100 µM: 81%
[2]; 10^-5.0 Molar
  activity at 10 µM: 101%
[2]; 10^-6.0 Molar
  activity at 1 µM: 101%
[2]; 10^-7.0 Molar
  activity at 0.1 µM: 101%
[3]; 10^-4.0 Molar
  activity at 100 µM: 72%
[3]; 10^-5.0 Molar
  activity at 10 µM: 102%
[3]; 10^-6.0 Molar
  activity at 1 µM: 102%
[3]; 10^-7.0 Molar
  activity at 0.1 µM: 99%
[4]; 10^-3.0 Molar
  activity: -100%
[4]; 10^-4.0 Molar
  activity at 100 µM: 127%
[4]; 10^-5.0 Molar
  activity at 10 µM: 136%
[4]; 10^-6.0 Molar
  activity at 1 µM: 144%
[4]; 10^-7.0 Molar
  activity at 0.1 µM: 145%
[5]
  tumors not detectable by palpation: 2 of 3
[6]; 75 μg/ml
  # responsive tumors/total # evaluated: 0/1
[6]; 100 μg/ml
  # responsive tumors/total # evaluated: 1/1
[6]; 125 μg/ml
  # responsive tumors/total # evaluated: 1/1
[7]; 5 months posttreatment
  regrowth of tumors: no signs of tumor regrowth; also recorded: regrowth of treated tumors did not occur for a period of 5 months
[7]; after 18 doses
  palpable prostate tumors: palpable prostate tumors in the treated group could not be detected; also recorded: palpable tumors were not detectable in treated animals
[7]; alternate days, 18 doses
  % TGI (percent tumor growth inhibition): 99.0%
  side effects such as weight loss, diarrhea, lethargy or discomfort: not observed; also recorded: No observable side effects
[7]; alternate days, 18 doses, control 19.90 ± 7.1
  Tumor Area: 0.0 cm^2
[7]; alternate days, 18 doses, control 20.64 ± 7.01
  Tumor Volume: 0.0 cm^3
[7]; alternate days, 18 doses, control 28.5
  Animal Weight: 29.3 g
